One assay deals with adult beagle dogs. Nature of the assay: Dog study, urine phosphate excretion. As to conditions: oral capsules, 2250 mg elemental lanthanum twice daily. It counts as in vivo.
Assay [1] concerns adult Sprague-Dawley rats. In words: In vivo study in 5/6 nephrectomized rats, urine phosphorus excretion. Also noted: species or system rat. As to conditions: 314 mg elemental lanthanum/kg/day oral, 14 days, compared to untreated rats. Here is the method: Groups of six adult Sprague-Dawley rats underwent ⅚th nephrectomy in two stages over a period of 2 weeks and were then allowed to recover for a further two weeks prior to being randomized for treatment. The groups received vehicle (0.5% w/v carboxymethyl cellulose), or lanthanum oxycarbonate suspended in vehicle, once daily for 14 days by oral […] (10 ml/kg/day). The dose delivered 314 mg elemental lanthanum/kg/day. Dosing was carried out immediately before the dark (feeding) cycle on each day. Urine samples (24 hours) were collected prior to surgery, prior to the commencement of treatment, and twice weekly during the treatment period. Volume and phosphorus concentration were measured.
Feeding—During the acclimatization and surgery period, the animals were given Teklad phosphate sufficient diet (0.5% Ca, 0.3% P; Teklad No. TD85343), ad libitum. At the beginning of the treatment period, animals were pair fed based upon the average food consumption of the vehicle-treated animals the previous week.
5/6 Nephrectomy—After one week of acclimatization, all animals were subjected to 5/6 nephrectomy surgery. The surgery was performed in two stages. First, the two lower branches of the left renal artery were ligated. One week later, a right nephrectomy was performed. […]

Procedure for adult beagle dogs: The doses were administered 30 minutes after provision of food to the animals. At least 14 days washout was allowed between the crossover arms. Plasma was obtained pre-dose and 1.5, 3, 6, 7.5, 9, 12, 24, 36, 48, 60, and 72 hours after dosing and analyzed for lanthanum using ICP-MS. Urine was collected by catheterization before and approximately 24 hours after dosing and creatinine and phosphorus concentrations measured.

For the compound `O=C([O-])[O-].[La+3].[OH-]` [compound A, LaCO3OH], in the assay on adult beagle dogs, the “urine phosphate excretion (marker of phosphorous binding)” value is on record as “reduction of urine phosphate excretion”.

`O=C([O-])[O-].[La+3].[La+3].[O-2].[O-2]` [compound B, La2O2CO3]: the “urine phosphate excretion (marker of phosphorous binding)” value with adult beagle dogs is “reduction of urine phosphate excretion”.

For the compound `O=C([O-])[O-].[La+3].[OH-]` [lanthanum carbonate hydroxide], the “phosphorus excretion in urine (marker of dietary phosphorus binding)” value in assay [1] is reported as “decrease in phosphorus excretion”.

Turning to lanthanum oxycarbonate, in assay [1], the “phosphorus excretion in urine (marker of dietary phosphorus binding)” value is recorded as “decrease in phosphorus excretion”.

These data come from patent publication US20060134225A1, “Phosphate binder with reduced pill burden” (priority 2004, published 2006).
